From patent US11753388B2, “Composition for inhibiting alpha-glucosidase and application thereof” (ZHENGZHOU FRUIT RESEARCH INSTITUTE, CHINESE ACADEMY OF …, priority 2021, dated 2023)
Each block holds one molecule with its values, some of them ahead of it.

Test system: α-glucosidase
Assay: in vitro α-glucosidase inhibition test (pNPG substrate, OD 405 nm); combination index by Chou-Talalay method with CompuSyn
Format: biochemical, Saccharomyces cerevisiae
Settings: single compound
Experimental: α-glucosidase (coming from Saccharomyces cerevisiae, Sigma);
an α-glucosidase solution with a concentration being 0.25 U/mL and a substrate p-nitrophenyl-α-D-glucopyranoside (pNPG) solution with a concentration being […] were prepared by using a PBS buffer solution (0.1 mol L−1 pH 6.8).
40 μL α-glucosidase solution was accurately removed, 100 μL of sample solution to be tested was added respectively, reacted for 10 min at 37° C., then 60 μL of substrate p-nitrophenyl-α-D-glucopyranoside (pNPG) solution was added, reacted for 15 min at 37° C., and an enzyme-linked analyzer measured at a wavelength of 405 nm.
First, daidzein, taxifolin, and 3-O-methyl quercetin were respectively prepared into 10 mg/mL mother solutions by using dimethyl sulfoxide (DMSO); and then a sample solution of the specific concentration of the daidzein, taxifolin, and 3-O-methyl quercetin and composition was prepared with PBS buffer solution.

Molecule: COc1ccc(-c2coc3cc(O)ccc3c2=O)cc1 [Formononetin]
Inhibition rate (20 μg/mL): 60.07 ± 5.3%

Molecule: O=c1cc(-c2ccc(O)c(O)c2)oc2cc(O)cc(O)c12 [Luteolin]
Inhibition rate (1 μg/mL): 45.5 ± 2.7%

Molecule: O=c1c(O)c(-c2ccc(O)cc2)oc2cc(O)cc(O)c12 [Kaempferol]
Inhibition rate (2.5 μg/mL): 40.83 ± 2.3%

Molecule: O=C(/C=C/c1ccc(O)cc1)c1ccc(O)cc1O [Isoliquiritigenin]
Inhibition rate (4 μg/mL): 35.2 ± 2.5%

Molecule: Vitexin
Inhibition rate (10 μg/mL): 29.2 ± 1.4%

Molecule: O=c1c(O)c(-c2ccc(O)cc2O)oc2cc(O)cc(O)c12 [Morin]
Inhibition rate (1 μg/mL): 41.2 ± 2.7%

Molecule: O=C(CCc1ccc(O)cc1)c1c(O)cc(O)cc1O [Phloretin]
Inhibition rate (8 μg/mL): 46.3 ± 2.7%

Molecule: COc1c(-c2ccc(O)c(O)c2)oc2cc(O)cc(O)c2c1=O [3-O-methyl quercetin, 3-O-Methyl Quercetin]
Inhibition rate (2 μg/mL): 46.23±1.2% | Inhibition rate (4 μg/mL): 53.52±3.2% | Inhibition rate (6 μg/mL): 61.72±3.5%

Molecule: COc1ccc(-c2oc3cc(O)cc(O)c3c(=O)c2O)cc1 [Kaempferide]
Inhibition rate (5 μg/mL): 30.8 ± 1.3%

Molecule: O=C(O[C@@H]1Cc2c(O)cc(O)cc2O[C@@H]1c1cc(O)c(O)c(O)c1)c1cc(O)c(O)c(O)c1 [Epigallocatechin gallate]
Inhibition rate (0.06 μg/mL): 42.5 ± 3.5%

Molecule: O=c1c(O)c(-c2ccc(O)c(O)c2)oc2cc(O)ccc12 [Fisetin]
Inhibition rate (6 μg/mL): 46.5 ± 2.3%

Molecule: Oc1cc(O)c2cc(O)c(-c3cc(O)c(O)c(O)c3)[o+]c2c1.[Cl-] [Delphinidin]
Inhibition rate (1 μg/mL): 50.2 ± 4.3%

Molecule: O=C1c2c(O)cc(O)cc2OC(c2ccc(O)cc2O)C1O (stereo not shown) [Dihydromorin]
Inhibition rate (15 μg/mL): 25.7 ± 4.7%

Molecule: COc1ccc(C2CC(=O)c3c(O)cc(O)cc3O2)cc1O (stereo not shown) [Hesperetin]
Inhibition rate (30 μg/mL): 45.2 ± 3.2%

Molecule: Chrysin
Inhibition rate (100 μg/mL): 51.2 ± 5.5%

Molecule: Oc1cc(O)c2cc(O)c(-c3ccc(O)c(O)c3)[o+]c2c1.[Cl-] [Cyanidin]
Inhibition rate (0.7 μg/mL): 47.5 ± 1.4%

Molecule: COc1cc(O)c2c(=O)cc(-c3ccc(O)cc3)oc2c1 [Genkwanin]
Inhibition rate (35 μg/mL): 70.12 ± 5.5%

Inhibition rate (25 μg/mL): 40.12±2.1% | Inhibition rate (30 μg/mL): 54.5±2.4% | Inhibition rate (50 μg/mL): 75.21±3.4%
Molecule: O=C1c2c(O)cc(O)cc2O[C@H](c2ccc(O)c(O)c2)[C@H]1O [Taxifolin]

Molecule: O=c1cc(-c2ccccc2)oc2cc(O)c(O)c(O)c12 [Baicalein]
Inhibition rate (10 μg/mL): 38.8 ± 3.3%

Molecule: O=c1c(O)c(-c2cc(O)c(O)c(O)c2)oc2cc(O)cc(O)c12 [Myricetin]
Inhibition rate (1 μg/mL): 41.2 ± 1.5%

Molecule: O=c1c(-c2ccc(O)cc2)coc2cc(O)ccc12 [Daidzein]
Inhibition rate (8 μg/mL): 44.5±2.5% | Inhibition rate (10 μg/mL): 52.25±2.5%

Molecule: COc1ccc(-c2coc3cc(O)cc(O)c3c2=O)cc1 [Biochanin A]
Inhibition rate (0.7 μg/mL): 38.5 ± 2.1%

Molecule: Herbacetin
Inhibition rate (2.5 μg/mL): 35.2 ± 1.2%
